Measurements: patent US10647679B2, “N-methyl-D-aspartate receptor (NMDAR) potentiators, pharmaceutical compositions, and uses related thereto” (Emory University, priority 2015, dated 2020)
Like-named read-outs stand apart in the source and are kept apart here.

How the values were obtained:
Type in all cases: cell-based
[1] = target: T1, recombinant rat GluN1/GluN2D (Rattus norvegicus, UniProt P35439+Q62645); test: Two-electrode voltage-clamp (TEVC) recordings in Xenopus laevis oocytes, GluN1/GluN2D
T1 construct: expressed in transfected cells; host or cells: Xenopus laevis oocytes (Ecocyte) injected with in vitro transcribed cRNA
T1 sequence (Q62645 28-1323, other chains not shown): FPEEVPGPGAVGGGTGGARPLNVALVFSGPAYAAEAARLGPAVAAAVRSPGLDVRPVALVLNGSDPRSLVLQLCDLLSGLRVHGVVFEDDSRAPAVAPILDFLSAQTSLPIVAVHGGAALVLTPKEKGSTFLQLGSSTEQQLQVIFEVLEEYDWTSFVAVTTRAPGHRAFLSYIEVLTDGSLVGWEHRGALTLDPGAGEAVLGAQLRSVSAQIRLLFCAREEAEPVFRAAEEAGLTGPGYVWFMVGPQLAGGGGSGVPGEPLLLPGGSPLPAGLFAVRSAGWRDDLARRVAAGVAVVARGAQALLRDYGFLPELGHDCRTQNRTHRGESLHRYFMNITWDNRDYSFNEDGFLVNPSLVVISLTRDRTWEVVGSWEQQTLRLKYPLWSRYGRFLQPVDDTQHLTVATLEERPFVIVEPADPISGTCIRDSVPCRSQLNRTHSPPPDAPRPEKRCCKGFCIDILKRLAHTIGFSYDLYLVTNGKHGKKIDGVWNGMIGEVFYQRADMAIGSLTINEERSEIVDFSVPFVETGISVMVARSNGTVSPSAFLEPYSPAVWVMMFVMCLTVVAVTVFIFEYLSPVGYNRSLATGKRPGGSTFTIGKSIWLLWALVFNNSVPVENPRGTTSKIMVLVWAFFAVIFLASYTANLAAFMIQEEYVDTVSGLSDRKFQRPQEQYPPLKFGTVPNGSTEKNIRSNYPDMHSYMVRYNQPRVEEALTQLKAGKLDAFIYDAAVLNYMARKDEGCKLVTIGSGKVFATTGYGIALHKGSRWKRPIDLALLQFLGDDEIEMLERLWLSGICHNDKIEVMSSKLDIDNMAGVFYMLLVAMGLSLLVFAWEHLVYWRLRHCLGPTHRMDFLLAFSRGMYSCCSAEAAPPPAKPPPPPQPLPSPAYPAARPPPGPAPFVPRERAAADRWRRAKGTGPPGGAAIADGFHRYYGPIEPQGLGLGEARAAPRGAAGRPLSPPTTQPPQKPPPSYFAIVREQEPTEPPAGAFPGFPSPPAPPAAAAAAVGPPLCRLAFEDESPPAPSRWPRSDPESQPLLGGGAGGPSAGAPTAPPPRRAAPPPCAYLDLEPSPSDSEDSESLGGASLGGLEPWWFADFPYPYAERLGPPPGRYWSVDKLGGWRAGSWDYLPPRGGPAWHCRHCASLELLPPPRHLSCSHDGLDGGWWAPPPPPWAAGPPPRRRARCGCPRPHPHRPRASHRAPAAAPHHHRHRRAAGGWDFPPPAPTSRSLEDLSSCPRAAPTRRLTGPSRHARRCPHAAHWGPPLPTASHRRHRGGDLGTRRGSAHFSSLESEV
Protocol: (§1) Data are from between 3-26 oocytes from 2-5 frogs for each compound and receptor tested.
(§2) Two-electrode voltage-clamp recordings were performed in Xenopus laevis oocytes (Ecocyte) expressing recombinant rat GluN1/GluN2A, GluN1/GluN2B, GluN1/GluN2C, GluN1/GluN2D. cRNA was transcribed in vitro (Ambion), diluted with nuclease free water, and injected at a ratio of 1:2 GluN1:GluN2 (5-10 ng total cRNA). The oocytes were kept in Barth's solution comprised of (in mM) 88 NaCl, 5 Tris-HCl, 2.4 NaHCO3, 1 KCl, 0.84 MgSO4, 0.41 CaCl2, and 0.33 Ca(NO3)2 at pH 7.4 at 15-17° C. for two to five days before experiments. Oocytes were placed into a perfusion chamber and continually washed with recording solution containing (in mM) 90 NaCl, 1.0 KCl, 0.5 BaCl2, 0.005 EDTA, and 10 HEPES at pH 7.4 (23° C.). Voltage clamp recordings were conducted at a holding potential of −40 mV. All compounds were made as 20 mM stock solutions in DMSO and dissolved to reach the final concentration in recording solution. Final DMSO content was 0.05-0.5% (vol/vol). Some oocytes expressing GluN1/GluN2A were pretreated with […] BAPTA-AM for 10 minutes or injected with […] of 2 mM K-BAPTA to prevent gradual run-up of the current response.

[2] = target: T2, recombinant rat GluN1/GluN2B (Rattus norvegicus, UniProt P35439+Q00960); test: Two-electrode voltage-clamp (TEVC) recordings in Xenopus laevis oocytes, GluN1/GluN2B; details: for EC50: fitted when potentiation at 30 μM exceeded 120%, Tables 3, 5-7, read-out: EC50 (max.) (μM %) GluN2B: fitted EC50
T2 construct: expressed in transfected cells; host or cells: Xenopus laevis oocytes (Ecocyte) injected with in vitro transcribed cRNA
Protocol: as §1, §2

[3] = target: T3, recombinant rat GluN1/GluN2C (Rattus norvegicus, UniProt P35439+Q00961); test: Two-electrode voltage-clamp (TEVC) recordings in Xenopus laevis oocytes, GluN1/GluN2C
T3 construct: expressed in transfected cells; host or cells: Xenopus laevis oocytes (Ecocyte) injected with in vitro transcribed cRNA
T3 sequence (Q00961 20-1237, other chains not shown): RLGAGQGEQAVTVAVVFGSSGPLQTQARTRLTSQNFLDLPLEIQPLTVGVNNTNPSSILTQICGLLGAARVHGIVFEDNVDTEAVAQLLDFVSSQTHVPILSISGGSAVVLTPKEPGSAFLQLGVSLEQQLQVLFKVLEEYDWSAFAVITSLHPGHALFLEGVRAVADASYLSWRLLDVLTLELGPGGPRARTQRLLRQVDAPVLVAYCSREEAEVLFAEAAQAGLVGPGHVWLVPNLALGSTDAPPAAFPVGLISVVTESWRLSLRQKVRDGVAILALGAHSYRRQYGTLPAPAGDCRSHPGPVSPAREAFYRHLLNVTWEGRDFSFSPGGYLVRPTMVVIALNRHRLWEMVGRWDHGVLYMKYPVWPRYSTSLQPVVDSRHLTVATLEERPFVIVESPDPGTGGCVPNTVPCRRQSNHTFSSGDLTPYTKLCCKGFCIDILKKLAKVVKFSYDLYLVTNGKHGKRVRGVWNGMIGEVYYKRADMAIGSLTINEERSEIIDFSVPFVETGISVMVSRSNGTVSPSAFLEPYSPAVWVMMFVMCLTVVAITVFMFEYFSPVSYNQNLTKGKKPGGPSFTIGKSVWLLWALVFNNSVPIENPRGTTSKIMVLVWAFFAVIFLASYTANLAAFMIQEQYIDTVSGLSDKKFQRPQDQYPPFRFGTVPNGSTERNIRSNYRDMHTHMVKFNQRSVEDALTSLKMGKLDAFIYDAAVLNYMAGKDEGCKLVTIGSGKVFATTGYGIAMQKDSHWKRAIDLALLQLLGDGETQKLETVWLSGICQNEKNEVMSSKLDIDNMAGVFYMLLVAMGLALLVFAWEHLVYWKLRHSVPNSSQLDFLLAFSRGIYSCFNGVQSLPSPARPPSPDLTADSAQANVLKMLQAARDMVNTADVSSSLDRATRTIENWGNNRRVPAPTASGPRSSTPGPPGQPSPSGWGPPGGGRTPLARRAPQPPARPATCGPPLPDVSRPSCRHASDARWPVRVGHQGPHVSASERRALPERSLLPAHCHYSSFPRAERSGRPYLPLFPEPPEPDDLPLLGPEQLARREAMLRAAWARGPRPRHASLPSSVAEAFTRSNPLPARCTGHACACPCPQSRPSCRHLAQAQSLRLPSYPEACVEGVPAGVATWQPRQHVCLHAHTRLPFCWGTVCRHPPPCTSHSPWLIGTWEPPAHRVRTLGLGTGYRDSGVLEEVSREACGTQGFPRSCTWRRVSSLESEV
Protocol: as §1, §2

[4] = target: T4, recombinant rat GluN1/GluN2D (Rattus norvegicus, UniProt Q62645); test: Two-electrode voltage-clamp (TEVC) recordings in Xenopus laevis oocytes, GluN1/GluN2D; details: 30 μM compound; Tables 5-7
T4 construct: expressed in transfected cells; host or cells: Xenopus laevis oocytes (Ecocyte) injected with in vitro transcribed cRNA
T4 sequence (Q62645 28-1323, other chains not shown): as the sequence (Q62645 28-1323, other chains not shown) above
Protocol: as §1, §2

[5] = target: T5, recombinant rat GluN1/GluN2B (Rattus norvegicus, UniProt Q00960); test: Two-electrode voltage-clamp (TEVC) recordings in Xenopus laevis oocytes, GluN1/GluN2B; details: for I30 μM/Icontrol (mean ± SEM, %) GluN2B: 30 μM compound, Tables 5-7
T5 construct: expressed in transfected cells; host or cells: Xenopus laevis oocytes (Ecocyte) injected with in vitro transcribed cRNA
T5 sequence (Q00960 27-1482, other chains not shown): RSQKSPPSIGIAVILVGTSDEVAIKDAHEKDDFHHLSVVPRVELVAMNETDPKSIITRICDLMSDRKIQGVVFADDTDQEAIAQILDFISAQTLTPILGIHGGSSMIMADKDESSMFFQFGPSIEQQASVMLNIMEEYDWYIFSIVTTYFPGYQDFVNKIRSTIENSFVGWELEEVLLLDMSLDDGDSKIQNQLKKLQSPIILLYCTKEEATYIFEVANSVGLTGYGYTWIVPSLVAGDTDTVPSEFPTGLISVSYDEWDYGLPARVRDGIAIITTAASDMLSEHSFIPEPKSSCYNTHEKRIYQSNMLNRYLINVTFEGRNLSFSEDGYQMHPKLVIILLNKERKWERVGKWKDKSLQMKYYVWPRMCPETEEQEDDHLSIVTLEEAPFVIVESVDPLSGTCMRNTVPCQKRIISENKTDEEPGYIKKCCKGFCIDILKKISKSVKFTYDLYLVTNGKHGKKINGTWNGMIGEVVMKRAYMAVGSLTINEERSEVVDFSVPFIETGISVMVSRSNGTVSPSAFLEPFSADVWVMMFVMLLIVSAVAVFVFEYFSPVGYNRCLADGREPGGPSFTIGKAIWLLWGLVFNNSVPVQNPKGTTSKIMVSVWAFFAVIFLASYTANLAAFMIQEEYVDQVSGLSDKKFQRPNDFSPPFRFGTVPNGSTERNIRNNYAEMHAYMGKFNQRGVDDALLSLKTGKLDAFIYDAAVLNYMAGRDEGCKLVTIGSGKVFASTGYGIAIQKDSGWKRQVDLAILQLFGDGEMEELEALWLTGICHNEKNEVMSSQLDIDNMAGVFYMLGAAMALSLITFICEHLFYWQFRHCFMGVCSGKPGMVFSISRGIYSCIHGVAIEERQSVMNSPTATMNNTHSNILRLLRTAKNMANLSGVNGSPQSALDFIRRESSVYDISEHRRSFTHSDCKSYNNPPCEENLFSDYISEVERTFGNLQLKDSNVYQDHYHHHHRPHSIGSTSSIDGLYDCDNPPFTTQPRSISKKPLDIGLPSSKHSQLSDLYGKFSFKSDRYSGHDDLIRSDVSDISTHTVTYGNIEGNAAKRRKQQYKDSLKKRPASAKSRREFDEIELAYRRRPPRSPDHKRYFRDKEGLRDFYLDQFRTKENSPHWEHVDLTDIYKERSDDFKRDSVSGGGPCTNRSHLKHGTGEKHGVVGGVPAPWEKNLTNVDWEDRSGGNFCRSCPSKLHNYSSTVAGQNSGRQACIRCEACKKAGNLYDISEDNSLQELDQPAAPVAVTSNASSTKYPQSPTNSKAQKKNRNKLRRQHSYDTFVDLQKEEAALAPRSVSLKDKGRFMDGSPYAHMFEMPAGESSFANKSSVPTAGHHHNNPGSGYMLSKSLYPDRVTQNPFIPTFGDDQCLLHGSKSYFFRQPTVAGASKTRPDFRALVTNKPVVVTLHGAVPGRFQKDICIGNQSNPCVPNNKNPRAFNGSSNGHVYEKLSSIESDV
Protocol: as §1, §2

[6] = target: T6, recombinant rat GluN1/GluN2C (Rattus norvegicus, UniProt Q00961); test: Two-electrode voltage-clamp (TEVC) recordings in Xenopus laevis oocytes, GluN1/GluN2C; details: 30 μM compound; Tables 5-7
T6 construct: expressed in transfected cells; host or cells: Xenopus laevis oocytes (Ecocyte) injected with in vitro transcribed cRNA
T6 sequence (Q00961 20-1237, other chains not shown): as the sequence (Q00961 20-1237, other chains not shown) above
Protocol: as §1, §2

[7] = maximum potentiation, response without modulator = 100%, read-out: GluN2D EC50 (μM)/Max %: Max %
[8] = maximum potentiation, response without modulator = 100%, read-out: GluN2B EC50 (μM)/Max %: Max %
[9] = maximum potentiation, response without modulator = 100%, read-out: GluN2C EC50 (μM)/Max %: Max %
[10] = percentage of the initial glutamate (100 μM) and glycine (30 μM) current, read-out: EC50 (max.) (μM %) GluN2B: fitted maximum response
[11] = fitted when potentiation at 30 μM exceeded 120%, Tables 3, 5-7, read-out: EC50 (max.) (μM %) GluN2C: fitted EC50
[12] = percentage of the initial glutamate (100 μM) and glycine (30 μM) current, read-out: EC50 (max.) (μM %) GluN2C: fitted maximum response
[13] = Tables 11-13, read-out: EC50 & Max Effect: 2D
[14] = Tables 11-13, read-out: EC50 & Max Effect: 2D Max (%)
[15] = Tables 11-13, read-out: EC50 & Max Effect: 2C
[16] = Tables 11-13, read-out: EC50 & Max Effect: 2C Max (%)
[17] = percentage of the initial glutamate (100 μM) and glycine (30 μM) current, read-out: EC50 (max.) (μM %) GluN2D: fitted maximum response
[18] = untitled tables after drawing 25 and drawing 36, read-out: EC50 (μM) GluN2D
[19] = untitled tables after drawing 25 and drawing 36, read-out: EC50 (μM) GluN2C

`COc1ccc(OCC2c3ccc(N(C)C)cc3CCN2C(=O)c2cccc(Cl)c2)cc1` (stereo not shown) [1180-104] showed an Emax [1, 7] of 349%, an Emax [2, 8] of 132% and an Emax [3, 9] of 315%.

For `CCOc1ccc(OC[C@@H]2c3ccc(OC(C)C)cc3CCN2C(=O)c2cccc(F)c2)cc1` [(S)-(−)-1180-87], the “I30 μM/Icontrol (mean ± SEM, %) GluN2D” value [4] was 119%, the “I30 μM/Icontrol (mean ± SEM, %) GluN2B” value [5] was 195% and the EC50 [2] was 6.7 µM. The Emax [2, 10] was 206%, the “I30 μM/Icontrol (mean ± SEM, %) GluN2C” value [6] was 131% and the EC50 [3, 11] was 7.6 µM. For the same compound, the Emax [3, 12] was 132%.

`COc1ccc(OCC2c3ccc(OCc4ccccc4)cc3CCN2C(=O)c2cccc(Br)c2)cc1` (stereo not shown) [drawing 33 R1=Br R2=H R3=H R4=OBn R5=H] gave an EC50 ([1]; EC50 & Max Effect: 2D (μM)) of 0.27 µM, an Emax ([1]; read-out: EC50 & Max Effect: 2D Max (%)) of 219% and an EC50 ([3]; EC50 & Max Effect: 2C (μM)) of 0.31 µM. It also gave an Emax ([3]; read-out: EC50 & Max Effect: 2C Max (%)) of 257%.

In the case of `CCOc1ccc(OCC2c3ccc(OC4CCCC4)cc3CCN2C(=O)c2cccc(F)c2)cc1` (stereo not shown) [1180-112], the EC50 [1, 13] is reported as 4.2 µM, the Emax [1, 14] is reported as 157% and the EC50 [3, 15] is reported as 4.1 µM. For the same compound, the Emax [3, 16] was 170%.

`CCOc1ccc(OCC2c3ccc(OC(C)C)cc3CCN2C(=S)c2cccc(Cl)c2)cc1` (stereo not shown) [1180-149] was tested, and the Emax [1, 7] was 145%, the Emax [2, 8] was 184% and the Emax [3, 9] was 179%.

Compound `COc1ccc(OCC2c3ccc(N(C)C)cc3CCN2C(=O)c2cccc(Br)c2)cc1` (stereo not shown) [drawing 33 R1=Br R2=H R3=H R4=NMe2 R5=H] has an Emax [1, 14] of 327% and an Emax [3, 16] of 293%.

In the case of `CCOc1ccc(OCC2c3ccc(OC(C)C)cc3CCN2C(=O)c2ccc(Cl)c(Cl)c2)cc1` (stereo not shown) [1180-103], the “I30 μM/Icontrol (mean ± SEM, %) GluN2D” value [4] is reported as 101%, the “I30 μM/Icontrol (mean ± SEM, %) GluN2B” value [5] is reported as 120% and the EC50 [2] is reported as 1.4 µM. For the same compound, the Emax [2, 8] was 130%, the Emax [2, 10] was 134% and the “I30 μM/Icontrol (mean ± SEM, %) GluN2C” value [6] was 134%. It also gave an EC50 [3, 11] of 0.65 µM, an Emax [3, 9] of 137% and an Emax [3, 12] of 139%.

`CCOc1ccc(OCC2c3ccc(OC(C)C)cc3CCN2C(=S)c2cccc(C(F)(F)F)c2)cc1` (stereo not shown) [1180-168] was tested, and the Emax [1, 17] was 128%, the “I30 μM/Icontrol (mean ± SEM, %) GluN2D” value [4] was 126% and the “I30 μM/Icontrol (mean ± SEM, %) GluN2B” value [5] was 185%. It also gave an EC50 [2] of 1 µM, an Emax [2, 8] of 171% and an Emax [2, 10] of 179%. The “I30 μM/Icontrol (mean ± SEM, %) GluN2C” value [6] was 139%, the EC50 [3, 11] was 0.33 µM and the Emax [3, 9] was 138%. The Emax [3, 12] was 141%.

Work on `COc1ccc(OCC2c3ccc(SCc4ccccc4)cc3CCN2C(=O)c2cccc(Cl)c2)cc1` (stereo not shown) [drawing 33 R1=Cl R2=H R3=H R4=SBn R5=H] yielded an EC50 [1, 13] of 0.43 µM, an Emax [1, 14] of 213% and an EC50 [3, 15] of 0.4 µM. For the same compound, the Emax [3, 16] was 226%.

In the case of `CCOc1ccc(OC[C@H]2c3ccc(OC(C)C)cc3CCN2C(=S)c2cccc(C(F)(F)F)c2)cc1` [(R)-(+)-1180-168], the EC50 ([1]; fitted when potentiation at 30 μM exceeded 120%, Tables 3, 5-7, read-out: EC50 (max.) (μM %) GluN2D: fitted EC50) is reported as 0.3 µM, the Emax [1, 17] is reported as 160% and the “I30 μM/Icontrol (mean ± SEM, %) GluN2D” value [4] is reported as 157%. For the same compound, the “I30 μM/Icontrol (mean ± SEM, %) GluN2B” value [5] was 156%, the EC50 [2] was 0.21 µM and the Emax [2, 10] was 173%. For the same compound, the “I30 μM/Icontrol (mean ± SEM, %) GluN2C” value [6] was 146%, the EC50 [3, 11] was 0.24 µM and the Emax [3, 12] was 182%.

For `CCOc1ccc(OC[C@@H]2c3ccc(OC(C)C)cc3CCN2C(=O)c2cccc(C(F)(F)F)c2)cc1` [(S)-(−)-1180-92], the “I30 μM/Icontrol (mean ± SEM, %) GluN2D” value [4] was 116%, the “I30 μM/Icontrol (mean ± SEM, %) GluN2B” value [5] was 207% and the EC50 [2] was 1.9 µM. For the same compound, the Emax [2, 10] was 210%, the “I30 μM/Icontrol (mean ± SEM, %) GluN2C” value [6] was 132% and the EC50 [3, 11] was 1.2 µM. It also gave an Emax [3, 12] of 141%.

For `COc1ccc(OCC2c3ccc(OC)cc3CCN2C(=O)CCCC(F)(F)F)cc1` (stereo not shown) [1180-252], the EC50 [1, 18] was 14 µM, the “GluN2B response % at 30 µM” value [5] was 96% at 30 and the EC50 [3, 19] was 11 µM.

`COc1ccc(OCC2c3ccc(OC)cc3CCN2C(=O)c2ccc(Cl)o2)cc1` (stereo not shown) [1180-234] was tested, and the EC50 [1, 18] was 5.5 µM, the “GluN2B response % at 30 µM” value [5] was 107% at 30 and the EC50 [3, 19] was 2.6 µM.

For `CCOc1ccc(OCC2c3ccc(OC(C)C)cc3CCN2C(=S)Nc2cccc(Cl)c2)cc1` (stereo not shown) [1180-210], the Emax [1, 7] was 174% and the Emax [3, 9] was 173%.
